In patent publication US9642804B2, “Cationic lipids with various head groups for oligonucleotide delivery” (priority 2009, dated 2017):

Key:
cytokines IL-6 and mKC = test: Mouse in vivo cytokine induction 3 hours post injection (plasma, SearchLight array); conditions: Luc siRNA RDV; plasma three hours post dose
Protocol: (§1) LNPs utilizing Compound 9 or 12, in the nominal compositions described immediately above, were evaluated for in vivo efficacy and induction of inflammatory cytokines in a luciferase mouse model. The siRNA targets the mRNA transcript for the firefly (Photinus pyralis) luciferase gene (Accession # M15077). […] The in vivo luciferase model employs a transgenic mouse in which the firefly luciferase coding sequence is present in all cells. ROSA26-LoxP-Stop-LoxP-Luc (LSL-Luc) transgenic mice licensed from the Dana Farber Cancer Institute are induced to express the Luciferase gene by first removing the LSL sequence with a recombinant Ad-Cre virus (Vector Biolabs). Due to the organo-tropic nature of the virus, expression is limited to the liver when delivered via tail vein injection. Luciferase expression levels in liver are quantitated by measuring light output, using an IVIS imager (Xenogen) following administration of the luciferin substrate (Caliper Life Sciences). Pre-dose luminescence levels are measured prior to administration of the RDVs. Luciferin in PBS (15 mg/mL) is intraperitoneally (IP) injected in a volume of 150 uL. After a four minute incubation period mice are anesthetized with isoflurane and placed in the IVIS. imager. The RDVs (containing siRNA) in PBS vehicle were tail vein injected in a volume of 0.2 mL. Final dose levels ranged from 0.3 to 3 mg/kg siRNA. PBS vehicle alone was dosed as a control. Three hours post dose, mice were bled retro-orbitally to obtain plasma for cytokine analysis. Mice were imaged 48 hours post dose using the method described above. Changes in luciferin light output directly correlate with luciferase mRNA levels and represent an indirect measure of luciferase siRNA activity. In vivo efficacy results are expressed as % inhibition of luminescence relative to pre-dose luminescence levels. Plasma cytokine levels were determined using the SearchLight multiplexed cytokine chemoluminescent array (Pierce/Thermo). Systemic administration of the luciferase siRNA RDVs decreased luciferase expression in a dose dependant manner. […] Compound 12, (Table 1 and FIG. 2). […] However, average cytokine induction was lower in the animals dosed with the Compound 9 RDV, relative to the Compound 12 RDV.(FIG. 1).

[1] = system: mRNA transcript for the ApoB gene; test: Rhesus monkey in vivo efficacy, serum LDL-C as surrogate marker of ApoB mRNA reduction; parameters: species or system Macaca mulatta (rhesus) monkey; conditions: ApoB siRNA RDV; 3.6 mg/kilogram siRNA intravenous; average of two monkeys
Protocol: LNPs utilizing Compounds 9 or 12 in the nominal compositions described above, were evaluated for in vivo efficacy and increases in alanine amino transferases (ALT) and aspartate amino transferase (AST) in male or female Macaca mulatta (rhesus) monkeys. The siRNA targets the mRNA transcript for the ApoB gene (Accession # XM 001097404). […] The RDVs (containing siRNA) in PBS vehicle were administered by intravenous injection in the saphenous vein at an injection rate of 20 mL/minute to a dose level of 3.6 mg/kilogram siRNA. The injection volumes were from 1.9 to 2.1 mL/kilogram and monkeys ranged in weight from 2.5 to 4.5 kilograms. Each RDV or PBS control was administered to two monkeys. At multiple days post dose, 1 mL blood samples were drawn from the femoral artery for serum chemistry analysis. Monkeys were fasted overnight prior to blood draws. Serum ALT and AST analysis were performed on the Siemens Advia 1800 Clinical Chemistry Analyzer utilizing the Siemens alanine aminotransferase (Cat# 03039631) and aspartate aminotransferase (Cat# 03039631) reagents. As a measure of efficacy, LDL-C was monitored as a downstream surrogate marker of ApoB mRNA reduction. At eight days post systemic administration, of RDVs containing Compounds 9 or 12, reduced serum levels of LDL-C to less than 50% of pre-dose levels (FIG. 4). […]

[2] = Rhesus monkey in vivo toxicity, serum ALT and AST; parameters: species or system Macaca mulatta (rhesus) monkey; conditions: ApoB siRNA RDV; 3.6 mg/kilogram siRNA intravenous
Protocol: LNPs utilizing Compounds 9 or 12 in the nominal compositions described above, were evaluated for in vivo efficacy and increases in alanine amino transferases (ALT) and aspartate amino transferase (AST) in male or female Macaca mulatta (rhesus) monkeys. The siRNA targets the mRNA transcript for the ApoB gene (Accession # XM 001097404). […] The RDVs (containing siRNA) in PBS vehicle were administered by intravenous injection in the saphenous vein at an injection rate of 20 mL/minute to a dose level of 3.6 mg/kilogram siRNA. The injection volumes were from 1.9 to 2.1 mL/kilogram and monkeys ranged in weight from 2.5 to 4.5 kilograms. Each RDV or PBS control was administered to two monkeys. At multiple days post dose, 1 mL blood samples were drawn from the femoral artery for serum chemistry analysis. Monkeys were fasted overnight prior to blood draws. Serum ALT and AST analysis were performed on the Siemens Advia 1800 Clinical Chemistry Analyzer utilizing the Siemens alanine aminotransferase (Cat# 03039631) and aspartate aminotransferase (Cat# 03039631) reagents. As a measure of efficacy, LDL-C was monitored as a downstream surrogate marker of ApoB mRNA reduction. At eight days post systemic administration, of RDVs containing Compounds 9 or 12, reduced serum levels of LDL-C to less than 50% of pre-dose levels (FIG. 4). The RDV containing Compound 9 reduced LDL-C levels to a greater extent than the RDV containing Compound 12 (ave.: −63% vs. −53%). ALT and AST were elevated relative to predose values in monkeys treated with both Compounds 9 and 12 RDVs (FIG. 4).

[3] = Rat in vivo toxicity, serum ALT and AST; parameters: species or system Sprague-Dawley rat; conditions: ApoB siRNA RDV; for LFTs relative to PBS control dosed rats: serum 24 hours after dosing
Protocol: After LNP administration, rats are placed in cages with normal diet and water present. Six hours post dose, food is removed from the cages. Animal necropsy is performed 24 hours after LNP dosing. Rats are anesthetized under isoflurane for 5 minutes, then maintained under anesthesia by placing them in nose cones continuing the delivery of isoflurane until ex-sanguination is completed. Blood is collected from the vena cava using a 23 guage butterfly venipuncture set and aliquoted to serum separator vacutainers for serum chemistry analysis. Punches of the excised caudate liver lobe are taken and placed in RNA Later (Ambion) for mRNA analysis. Preserved liver tissue was homogenized and total RNA isolated using a Qiagen bead mill and the Qiagen miRNA-Easy RNA isolation kit following the manufacturer's instructions. Liver ApoB mRNA levels were determined by quantitative RT-PCR. Message was amplified from purified RNA utilizing a rat ApoB commercial probe set (Applied Biosystems Cat # RN01499054_ml). The PCR reaction was performed on an ABI 7500 instrument with a 96-well Fast Block. The ApoB mRNA level is normalized to the housekeeping PPIB (NM 011149) mRNA. PPIB mRNA levels were determined by RT-PCR using a commercial probe set (Applied Biosytems Cat. No. Mm00478295_ml). Results are expressed as a ratio of ApoB mRNA/PPIB mRNA. All mRNA data is expressed relative to the PBS control dose. Serum ALT and AST analysis were performed on the Siemens Advia 1800 Clinical Chemistry Analyzer utilizing the Siemens alanine aminotransferase (Cat# 03039631) and aspartate aminotransferase (Cat# 03039631) reagents.

[4] = system: mRNA transcript for the firefly (Photinus pyralis) luciferase gene; test: Mouse in vivo efficacy, luciferase mouse model (liver bioluminescence, IVIS); conditions: for Average % Inhibition of Bioluminescence: LNP (cationic lipid/cholesterol/PEG-DMG 60/38/2) with Luc siRNA, tail vein, 48 hours post dose, relative to pre-dose
Protocol: as §1

[5] = rat serum 24 hours after dosing

Row | Structure (SMILES) | Mouse plasma level of IL-6 relative to the PBS control (cytokines IL-6 and mKC) | Mouse plasma level of mKC relative to the PBS control (cytokines IL-6 and mKC) | Reduction of LDL-C levels (ave.) [1] | ALT relative to predose values [2] | AST relative to predose values [2] | Elevation of ALT, comparison of the RDVs [2] | Elevation of AST, comparison of the RDVs [2] | AST levels, comparison of the RDVs [3, 5] | LFTs relative to PBS control dosed rats [3] | Average % Inhibition of Bioluminescence ([4]; 0.1 mg Kg^−1) | Average % Inhibition of Bioluminescence ([4]; 0.3 mg Kg^−1) | Average % Inhibition of Bioluminescence ([4]; 1.0 mg Kg^−1) | Average cytokine induction, Compound 9 RDV relative to Compound 12 RDV (cytokines IL-6 and mKC) | ALT levels, comparison of the RDVs [3, 5] | Efficacy in decreasing luciferase expression, comparison of the RDVs ([4]; Luc siRNA RDV, Compound 9 RDV versus Compound 12 RDV)
1 | CCCCC/C=C\C/C=C\CCCCCCCCOCC(CN(C)C)OCCCCCCCCO[C@H]1CC[C@@]2(C)C(=CC[C@H]3[C@@H]4CC[C@H]([C@H](C)CCCC(C)C)[C@@]4(C)CC[C@@H]32)C1 (stereo partly shown) [Compound 12, S-Octyl CLinDMA, reference compound] | significantly increased | significantly increased | −53% | elevated | elevated | approximately equivalent | elevated to a markedly higher level | increased more strongly | An increase in LFTs | 54% | 74% | 88% |  |  | 
2 | CCCCCCCC/C=C\CCCCCCCCOC[C@@H](COCCCCCCO[C@H]1CC[C@@]2(C)C(=CC[C@@H]3C2CC[C@@]2(C)C3CC[C@@H]2[C@H](C)CCCC(C)C)C1)N(C)C (stereo partly shown) [Compound 9] | significantly increased | significantly increased | −63% | elevated | elevated | approximately equivalent |  |  | An increase in LFTs | 80% | 89% | 91% | lower | increased to a greater extent | Greater efficacy
